One experiment deals with LIMK2 (Homo sapiens, UniProt P53671). Kind of experiment: in vitro kinase enzyme assay. It is filed as biochemical.
Experiment [1] has as its target T1, LIMK1 (Homo sapiens, UniProt P53667). Kind of experiment: in vitro kinase enzyme assay. The format is biochemical.
In experiment [2] the target is T1, LIMK1. Kind of experiment: biochemical. The note with it: competition binding, percent control. Details: KINOMEscan active-site competition binding, percent of control (100 = no competition).
Description: Kinases inhibited >25% to 50% have yellow circles, 51% to 75% have orange circles, and >76% have red circles. In each case, the size of the circle is proportional to percentage inhibition.
The target of another experiment is ACVRL1 (Homo sapiens, UniProt P37023). Briefly: biochemical. Details: KINOMEscan active-site competition binding, percent of control (100 = no competition). The note with it: competition binding, percent control.
Another experiment concerns the target T2, DLK (Homo sapiens, UniProt Q12852).
T2 construct: gene MAP3K12
Kind of experiment: biochemical. The arrangement: KINOMEscan active-site competition binding, percent of control (100 = no competition). Conditions: competition binding, percent control.

A further experiment deals with LRRK2 (Homo sapiens, UniProt Q5S007). Briefly: biochemical. Details: KINOMEscan active-site competition binding, percent of control (100 = no competition). The note with it: competition binding, percent control.
A further experiment concerns the target MAP4K4 (Homo sapiens, UniProt O95819). Briefly: biochemical. Conditions: competition binding, percent control. Details: KINOMEscan active-site competition binding, percent of control (100 = no competition).
The target in a further experiment is MYO3B (Homo sapiens, UniProt Q8WXR4). Kind of experiment: biochemical. Details: KINOMEscan active-site competition binding, percent of control (100 = no competition). Conditions: competition binding, percent control.
Another experiment deals with PKN1 (Homo sapiens, UniProt Q16512). Kind of experiment: biochemical. The arrangement: KINOMEscan active-site competition binding, percent of control (100 = no competition). Conditions: competition binding, percent control.
For a further experiment, the target named is RET(V804L) (Homo sapiens, UniProt P07949, V804L). Kind of experiment: biochemical. The arrangement: KINOMEscan active-site competition binding, percent of control (100 = no competition). The note with it: competition binding, percent control.
The target of another experiment is ULK2 (Homo sapiens, UniProt Q8IYT8). Briefly: biochemical. The note with it: competition binding, percent control. Details: KINOMEscan active-site competition binding, percent of control (100 = no competition).
The next experiment concerns the target T3, p38-beta (Homo sapiens, UniProt Q15759).
T3 construct: gene MAPK11
Briefly: biochemical. The arrangement: KINOMEscan active-site competition binding, percent of control (100 = no competition). Conditions: competition binding, percent control.

Molecules are shown by their SMILES.

T3 sequence (Q15759 whole entry): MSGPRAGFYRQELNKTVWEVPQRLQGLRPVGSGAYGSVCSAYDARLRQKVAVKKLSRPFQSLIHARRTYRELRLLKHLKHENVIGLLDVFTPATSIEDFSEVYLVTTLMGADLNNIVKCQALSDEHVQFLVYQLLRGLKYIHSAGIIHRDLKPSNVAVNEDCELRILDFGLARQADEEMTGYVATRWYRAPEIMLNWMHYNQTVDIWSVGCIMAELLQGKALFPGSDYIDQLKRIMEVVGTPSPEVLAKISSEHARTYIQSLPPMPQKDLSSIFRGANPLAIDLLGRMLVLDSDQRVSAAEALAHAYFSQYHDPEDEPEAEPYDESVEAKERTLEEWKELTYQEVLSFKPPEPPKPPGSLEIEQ
LIMK2, sequence (P53671 whole entry): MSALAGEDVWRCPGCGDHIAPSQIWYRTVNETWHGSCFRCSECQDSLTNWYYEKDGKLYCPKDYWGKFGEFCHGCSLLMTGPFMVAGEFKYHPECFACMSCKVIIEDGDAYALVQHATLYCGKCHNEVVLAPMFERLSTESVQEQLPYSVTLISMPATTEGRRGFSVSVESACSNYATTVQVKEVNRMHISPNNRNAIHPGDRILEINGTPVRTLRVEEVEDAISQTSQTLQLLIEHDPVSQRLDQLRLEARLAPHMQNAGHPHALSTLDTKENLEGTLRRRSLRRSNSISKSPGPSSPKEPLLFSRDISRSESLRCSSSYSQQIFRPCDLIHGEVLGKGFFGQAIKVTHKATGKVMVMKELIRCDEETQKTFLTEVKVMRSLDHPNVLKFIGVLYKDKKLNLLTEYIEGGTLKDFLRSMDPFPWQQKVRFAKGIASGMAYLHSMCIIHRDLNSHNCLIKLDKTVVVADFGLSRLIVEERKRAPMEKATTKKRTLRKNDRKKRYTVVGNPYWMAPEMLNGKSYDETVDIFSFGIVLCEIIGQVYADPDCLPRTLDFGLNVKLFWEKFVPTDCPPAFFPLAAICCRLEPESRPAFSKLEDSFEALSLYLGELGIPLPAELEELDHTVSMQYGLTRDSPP
PKN1, sequence (Q16512 whole entry): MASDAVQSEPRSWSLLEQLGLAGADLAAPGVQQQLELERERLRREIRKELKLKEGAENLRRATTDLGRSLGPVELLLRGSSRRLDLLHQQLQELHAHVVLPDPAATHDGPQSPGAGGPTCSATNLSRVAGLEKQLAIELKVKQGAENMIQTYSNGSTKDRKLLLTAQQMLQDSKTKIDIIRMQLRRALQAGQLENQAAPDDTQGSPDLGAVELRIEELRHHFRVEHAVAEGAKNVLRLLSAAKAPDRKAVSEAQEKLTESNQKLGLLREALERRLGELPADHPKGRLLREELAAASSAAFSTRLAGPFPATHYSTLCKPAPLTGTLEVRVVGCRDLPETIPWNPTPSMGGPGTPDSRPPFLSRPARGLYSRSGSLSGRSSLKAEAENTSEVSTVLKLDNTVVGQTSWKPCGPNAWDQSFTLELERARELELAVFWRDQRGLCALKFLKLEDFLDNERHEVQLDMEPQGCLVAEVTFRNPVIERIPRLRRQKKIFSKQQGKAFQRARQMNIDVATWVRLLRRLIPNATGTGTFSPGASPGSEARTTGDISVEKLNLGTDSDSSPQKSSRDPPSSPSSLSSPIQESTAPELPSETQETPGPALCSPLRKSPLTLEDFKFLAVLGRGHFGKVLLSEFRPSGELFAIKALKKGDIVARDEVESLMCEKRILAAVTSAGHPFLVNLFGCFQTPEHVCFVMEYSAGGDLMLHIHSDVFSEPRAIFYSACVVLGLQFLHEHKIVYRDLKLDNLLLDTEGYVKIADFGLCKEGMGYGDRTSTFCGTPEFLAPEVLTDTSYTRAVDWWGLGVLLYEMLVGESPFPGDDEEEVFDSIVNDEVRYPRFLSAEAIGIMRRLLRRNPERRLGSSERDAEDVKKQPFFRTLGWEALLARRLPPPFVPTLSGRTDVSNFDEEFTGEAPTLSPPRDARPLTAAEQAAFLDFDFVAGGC
ULK2, sequence (Q8IYT8 whole entry): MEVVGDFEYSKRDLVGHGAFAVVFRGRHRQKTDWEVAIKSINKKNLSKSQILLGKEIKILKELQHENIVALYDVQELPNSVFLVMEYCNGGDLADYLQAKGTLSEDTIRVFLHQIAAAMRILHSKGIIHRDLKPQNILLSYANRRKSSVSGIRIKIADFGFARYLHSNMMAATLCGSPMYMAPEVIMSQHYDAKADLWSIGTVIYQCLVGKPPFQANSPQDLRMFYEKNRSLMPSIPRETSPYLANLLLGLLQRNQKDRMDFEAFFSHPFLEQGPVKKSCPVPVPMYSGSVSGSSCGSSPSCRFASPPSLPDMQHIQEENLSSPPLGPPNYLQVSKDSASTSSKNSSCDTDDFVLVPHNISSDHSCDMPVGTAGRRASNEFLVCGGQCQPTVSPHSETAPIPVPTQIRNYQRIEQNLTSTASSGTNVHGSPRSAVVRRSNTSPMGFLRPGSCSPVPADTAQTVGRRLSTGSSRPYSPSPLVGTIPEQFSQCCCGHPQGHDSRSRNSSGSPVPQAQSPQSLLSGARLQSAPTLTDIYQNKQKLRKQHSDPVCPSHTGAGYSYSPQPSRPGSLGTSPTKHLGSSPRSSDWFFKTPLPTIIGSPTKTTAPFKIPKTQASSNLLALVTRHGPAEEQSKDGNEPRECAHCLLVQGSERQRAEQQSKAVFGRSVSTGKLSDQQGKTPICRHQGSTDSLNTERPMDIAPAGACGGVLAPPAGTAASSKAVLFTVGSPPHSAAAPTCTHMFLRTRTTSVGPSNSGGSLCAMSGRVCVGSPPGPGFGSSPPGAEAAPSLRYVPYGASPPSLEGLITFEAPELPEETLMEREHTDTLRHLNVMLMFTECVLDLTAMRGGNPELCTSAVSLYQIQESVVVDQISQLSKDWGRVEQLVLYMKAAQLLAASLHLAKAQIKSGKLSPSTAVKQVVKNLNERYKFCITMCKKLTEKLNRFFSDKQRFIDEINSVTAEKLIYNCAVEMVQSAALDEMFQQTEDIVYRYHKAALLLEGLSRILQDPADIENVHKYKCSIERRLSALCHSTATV
RET(V804L), sequence (P07949 whole entry V804L): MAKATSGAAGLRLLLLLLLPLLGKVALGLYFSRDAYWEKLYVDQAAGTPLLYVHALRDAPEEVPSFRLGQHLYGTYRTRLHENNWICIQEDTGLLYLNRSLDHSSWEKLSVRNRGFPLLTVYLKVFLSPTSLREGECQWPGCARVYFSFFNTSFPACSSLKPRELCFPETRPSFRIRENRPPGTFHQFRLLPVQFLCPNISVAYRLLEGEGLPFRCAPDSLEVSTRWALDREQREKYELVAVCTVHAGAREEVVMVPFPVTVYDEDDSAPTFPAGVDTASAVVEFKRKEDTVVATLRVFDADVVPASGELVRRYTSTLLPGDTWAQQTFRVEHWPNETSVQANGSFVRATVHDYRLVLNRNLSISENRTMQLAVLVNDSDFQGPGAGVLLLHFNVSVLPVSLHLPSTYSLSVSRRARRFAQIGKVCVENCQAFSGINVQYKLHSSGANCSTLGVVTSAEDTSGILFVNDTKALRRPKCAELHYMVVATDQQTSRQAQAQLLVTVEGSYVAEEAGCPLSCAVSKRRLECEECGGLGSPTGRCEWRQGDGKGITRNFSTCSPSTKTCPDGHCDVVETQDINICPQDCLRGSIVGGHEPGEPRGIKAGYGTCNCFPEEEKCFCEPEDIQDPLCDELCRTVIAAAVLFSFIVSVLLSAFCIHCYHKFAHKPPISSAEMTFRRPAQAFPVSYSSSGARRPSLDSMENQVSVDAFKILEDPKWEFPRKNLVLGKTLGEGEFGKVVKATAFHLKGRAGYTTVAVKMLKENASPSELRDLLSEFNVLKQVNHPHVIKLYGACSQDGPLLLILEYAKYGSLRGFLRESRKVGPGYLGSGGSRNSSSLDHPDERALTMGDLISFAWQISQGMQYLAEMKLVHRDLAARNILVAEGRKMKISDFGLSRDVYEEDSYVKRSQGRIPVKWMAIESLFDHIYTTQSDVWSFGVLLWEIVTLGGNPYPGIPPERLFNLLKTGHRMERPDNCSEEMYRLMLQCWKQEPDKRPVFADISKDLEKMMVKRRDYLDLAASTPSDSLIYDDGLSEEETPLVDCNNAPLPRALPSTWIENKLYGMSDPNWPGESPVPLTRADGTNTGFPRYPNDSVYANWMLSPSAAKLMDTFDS
T1 sequence (P53667 whole entry): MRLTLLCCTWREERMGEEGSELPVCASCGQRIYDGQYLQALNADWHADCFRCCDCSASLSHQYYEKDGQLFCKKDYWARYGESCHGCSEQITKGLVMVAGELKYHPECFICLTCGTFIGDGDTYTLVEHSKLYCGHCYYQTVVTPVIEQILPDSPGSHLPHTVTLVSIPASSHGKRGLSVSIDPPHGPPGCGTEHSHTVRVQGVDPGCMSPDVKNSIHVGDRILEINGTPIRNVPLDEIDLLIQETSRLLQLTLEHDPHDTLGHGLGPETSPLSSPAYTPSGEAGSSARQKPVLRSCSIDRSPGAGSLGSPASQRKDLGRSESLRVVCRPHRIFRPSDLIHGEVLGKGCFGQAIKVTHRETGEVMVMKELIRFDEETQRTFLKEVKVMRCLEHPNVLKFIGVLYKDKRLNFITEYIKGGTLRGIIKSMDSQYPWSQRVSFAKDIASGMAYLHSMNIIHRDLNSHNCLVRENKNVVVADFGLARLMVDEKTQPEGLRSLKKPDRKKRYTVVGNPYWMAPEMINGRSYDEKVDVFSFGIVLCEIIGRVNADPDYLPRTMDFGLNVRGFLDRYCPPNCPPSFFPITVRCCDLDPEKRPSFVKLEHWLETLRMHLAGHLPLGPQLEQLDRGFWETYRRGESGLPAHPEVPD

On to `COc1ccc(-c2cnccc2-c2cnc(NC(=O)C(C)C)s2)c(C(F)(F)F)c1` [CRT0105446, N-{5-[3-(4-Methoxy-2-trifluoromethyl-phenyl)-pyridin-4-yl]-hiazol-2-yl}-isobutyramide], for which the IC50 amounted to 32 nM against LIMK2 and 8 nM at LIMK1 [1]. Moreover, the remaining binding at 10 µM was 2% on LIMK1 [2]; 100% at ACVRL1; 100% at DLK; 91% on LRRK2; 68% on MAP4K4; 100% at MYO3B. In addition, the remaining binding at 10 µM at PKN1 came out at 62%; on RET(V804L), 99%; at ULK2, 100%; on p38-beta, 100%.

Regarding `Cc1ccc(-c2cnccc2-c2cnc(Nc3ccc(O)cc3)s2)c(Cl)c1` [CRT0105950, 4-{5-[3-(2-Chloro-4-methyl-phenyl)-pyridin-4-yl]-thiazol-2-ylamino}-phenol], the IC50 against LIMK2 turned out to be 1 nM. The remaining binding at 10 µM on ACVRL1 was determined as 100%; at DLK it was 100%; at LRRK2, 54%; on MAP4K4, 11%; on MYO3B, 90%; on PKN1, 20%. Further, the remaining binding at 10 µM at RET(V804L) is 5.8%; on ULK2, 20%; on p38-beta, 93%.

The term IC50 denotes the concentration that gives 50% inhibition. A higher IC50 goes with weaker potency.

(Values after publication PMC4770715, “LIM kinase inhibitors disrupt mitotic microtubule organization and impair tumor cell proliferation” (Oncotarget, 2015).)
